The values that follow come from patent US10960087B2, “Compositions and methods for treatment of diabetic retinopathy” (NOVARTIS AG, priority 2007, dated 2021).

Where two headings read alike, the source gives them in different places.

Data set [1] concerns HuT 78 cell adhesion to 5dICAM-Ig. In words: Human T-cell adhesion assay (HuT 78). The settings on record: HuT78, HuT 78 adhesion to 5dICAM-Ig. The format is cell-based. As to the method: The T-cell adhesion assay was performed using the human T-lymphoid cell line HuT 78 (ATCC TIB-161). Goat anti-HuIgG(Fc) was diluted to 2 μg/ml in PBS and 96-well plates were coated with 50 μl/well at 37° C. for 1 h. Plates were washed with PBS and blocked for 1 h at room temperature with 1% BSA in PBS. 5 domain ICAM-Ig was diluted to 100 ng/ml in PBS and 50 μl/well was added to the plates 0/N at 4° C. HuT 78 cells were centrifuged at 100 g and the cell pellet was treated with 5 mM EDTA for ˜5′ at 37° C. in a 5% CO2 incubator. Cells were washed in 0.14 M NaCl, 0.02 M Hepes, 0.2% glucose and 0.1 mM MnCl2 (assay buffer) and centrifuged. The cells were resuspended in assay buffer to 3.0×10^6 c/ml. Inhibitors were diluted in assay buffer to a 2× final concentration and pre-incubated with HuT78 cells for 30′ at room temperature. 100 μl/well of cells and inhibitors were added to the plates and incubated at room temperature for 1 h. 100 μl/well PBS was added and the plates were sealed and centrifuged inverted at 100 g for 5′. Unattached cells were flicked out of the plate and excess PBS was blotted on a paper towel. 60 μl/well p-nitrophenyl n-acetyl-β-D-glucosaminide (0.257 g to 100 ml citrate buffer) was added to the plate and incubated for 1.5 h at 37° C. The enzyme reaction was stopped with 90 μI/well 50 mM glycine/5 mM EDTA and read on a platereader at […]. HUT 78 cell adhesion to 5dICAM-Ig was measured using the p-nitrophenyl n-acetyl-.β-D-glucosaminide method of Landegren, U. (1984). J. Immunol. Methods 57, 379-388.

A further data set is described as follows: Solubility. The format is physicochemical.
Data set [2] relates to human mononucleocytes (PBMC) stimulated with staphylococcal enterotoxin B (SEB). The experiment in a line: cells. The format is cell-based.
A further data set concerns the target LFA-1 (Homo sapiens, UniProt P20701). The settings on record: Lu et al. 2004; cited from earlier work.

Chain of LFA-1 (P20701 26-1170): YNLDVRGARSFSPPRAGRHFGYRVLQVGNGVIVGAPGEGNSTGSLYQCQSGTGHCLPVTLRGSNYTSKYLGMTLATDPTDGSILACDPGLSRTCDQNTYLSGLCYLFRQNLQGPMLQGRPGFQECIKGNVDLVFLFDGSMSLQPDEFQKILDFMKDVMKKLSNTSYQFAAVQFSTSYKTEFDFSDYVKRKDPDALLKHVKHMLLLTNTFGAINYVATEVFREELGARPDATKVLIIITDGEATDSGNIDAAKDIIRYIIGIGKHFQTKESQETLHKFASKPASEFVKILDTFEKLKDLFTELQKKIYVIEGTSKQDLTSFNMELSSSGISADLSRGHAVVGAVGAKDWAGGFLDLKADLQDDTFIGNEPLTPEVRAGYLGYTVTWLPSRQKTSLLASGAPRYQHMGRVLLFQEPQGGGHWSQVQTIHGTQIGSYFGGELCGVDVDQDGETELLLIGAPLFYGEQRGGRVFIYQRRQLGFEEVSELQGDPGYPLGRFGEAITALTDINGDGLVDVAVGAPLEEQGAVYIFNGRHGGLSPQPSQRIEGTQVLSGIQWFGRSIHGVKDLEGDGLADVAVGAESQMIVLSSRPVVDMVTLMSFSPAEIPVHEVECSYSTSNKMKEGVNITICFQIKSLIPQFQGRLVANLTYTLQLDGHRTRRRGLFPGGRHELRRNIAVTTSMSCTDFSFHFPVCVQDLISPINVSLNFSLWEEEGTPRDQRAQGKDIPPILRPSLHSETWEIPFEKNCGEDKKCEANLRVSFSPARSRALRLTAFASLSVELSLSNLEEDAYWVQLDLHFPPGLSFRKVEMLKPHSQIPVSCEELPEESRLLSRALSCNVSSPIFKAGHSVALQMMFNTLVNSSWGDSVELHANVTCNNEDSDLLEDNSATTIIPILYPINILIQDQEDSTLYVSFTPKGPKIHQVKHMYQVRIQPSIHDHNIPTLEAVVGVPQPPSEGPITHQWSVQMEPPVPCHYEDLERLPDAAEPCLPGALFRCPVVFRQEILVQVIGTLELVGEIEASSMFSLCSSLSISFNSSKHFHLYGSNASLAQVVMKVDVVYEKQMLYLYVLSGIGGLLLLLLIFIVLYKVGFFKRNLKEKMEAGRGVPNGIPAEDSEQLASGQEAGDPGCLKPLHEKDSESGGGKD
Chain of LFA-1 (P05107 23-769 partner): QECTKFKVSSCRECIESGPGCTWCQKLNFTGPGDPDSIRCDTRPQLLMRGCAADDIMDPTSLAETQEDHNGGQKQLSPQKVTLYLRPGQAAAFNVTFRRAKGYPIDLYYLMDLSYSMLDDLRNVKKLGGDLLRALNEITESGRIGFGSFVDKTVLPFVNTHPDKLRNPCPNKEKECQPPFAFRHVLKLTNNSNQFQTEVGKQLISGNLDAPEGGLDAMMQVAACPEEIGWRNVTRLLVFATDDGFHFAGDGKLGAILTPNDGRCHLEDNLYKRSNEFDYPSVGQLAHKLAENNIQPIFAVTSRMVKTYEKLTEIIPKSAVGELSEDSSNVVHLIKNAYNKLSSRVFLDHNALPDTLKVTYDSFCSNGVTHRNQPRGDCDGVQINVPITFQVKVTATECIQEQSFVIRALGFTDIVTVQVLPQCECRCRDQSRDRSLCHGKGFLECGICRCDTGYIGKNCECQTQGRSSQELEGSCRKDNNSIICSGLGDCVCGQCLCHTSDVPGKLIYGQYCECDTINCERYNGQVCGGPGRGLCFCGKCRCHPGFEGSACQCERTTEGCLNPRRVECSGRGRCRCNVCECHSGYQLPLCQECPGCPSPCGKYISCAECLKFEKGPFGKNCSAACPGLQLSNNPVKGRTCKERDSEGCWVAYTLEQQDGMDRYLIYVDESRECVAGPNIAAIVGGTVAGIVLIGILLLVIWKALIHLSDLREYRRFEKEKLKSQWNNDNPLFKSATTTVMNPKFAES

On to `Cc1cc2c(=O)n(Cc3ccccc3)ncc2cc1C(=O)N[C@@H](CNC(=O)c1cccs1)C(=O)O` [Compound 29], for which, in data set [1], the concentration for a half-maximal effect (EC50) is at most 3000 nM. Besides, the solubility in the data set “Solubility” is over 50 mg/mL.

Molecule `O=C(NC[C@H](NC(=O)c1c(Cl)cc2c(c1Cl)CCN(C(=O)c1ccc3ccoc3c1)C2)C(=O)O)c1cccc(F)c1` [Compound 31] registered an EC50 in data set [1] of at most 50 nM. Also, the solubility in “Solubility” was over 50 mg/mL.

Regarding `O=C(NC[C@H](NC(=O)c1c(Cl)cc(CCC(O)c2cccc(O)c2)cc1Cl)C(=O)O)c1cccs1` (stereo partly shown) [Compound 32], the EC50 in data set [1] is at most 50 nM. The molecule further had a solubility in the data set “Solubility” of over 50 mg/mL.

In data set [1], `O=C(NC[C@H](NC(=O)c1c(Cl)cc2c(c1Cl)CCN(C(=O)c1cc(O)nc3ccccc13)C2)C(=O)O)c1cccs1` [Compound 35] had a 50% effective concentration (EC50) of at most 50 nM. In “Solubility”, this molecule yielded a solubility of over 100 mg/mL.

`CS(=O)(=O)c1cccc(C[C@H](NC(=O)c2c(Cl)cc3c(c2Cl)CCN(C(=O)c2cc4ccccc4[nH]2)C3)C(=O)O)c1` [Compound 36] registered a 50% effective concentration (EC50) in data set [1] of at most 50 nM. Besides, in the data set “Solubility”, the solubility is over 50 mg/mL.

The molecule `CS(=O)(=O)c1ccc(C[C@H](NC(=O)c2c(Cl)cc3c(c2Cl)CCN(C(=O)c2ccc4ccoc4c2)C3)C(=O)O)o1` [Compound 41] had a concentration for a half-maximal effect (EC50) in data set [1] of at most 50 nM. Besides, the solubility in “Solubility” is over 100 mg/mL.

As to `CS(=O)(=O)CCNC[C@H](NC(=O)c1c(Cl)cc2c(c1Cl)CCN(C(=O)c1ccc(Cl)cc1)C2)C(=O)O` [Compound 42], the EC50 in data set [1] is at most 3000 nM. Further, the solubility in “Solubility” is over 100 mg/mL.

In data set [1], `CS(=O)(=O)NCCC[C@H](NC(=O)c1c(Cl)cc2c(c1Cl)CCN(C(=O)c1ccc3ccoc3c1)C2)C(=O)O` [Compound 44] returned a half-maximal effective concentration (EC50) of at most 50 nM. The solubility in “Solubility” was over 100 mg/mL.

The molecule `O=C(NC[C@H](NC(=O)c1c(Cl)cc2c(c1Cl)CCN(C(=O)/C=C/c1ccco1)C2)C(=O)O)c1cccs1` [Compound 45] had an EC50 in data set [1] of at most 50 nM. Also, in “Solubility”, the solubility was over 100 mg/mL.

The molecule `CS(=O)(=O)c1cccc(C[C@H](NC(=O)c2c(Cl)cccc2Cl)C(=O)O)c1` [Compound 46] registered a half-maximal effective concentration (EC50) in data set [1] of at most 100 nM. For the same molecule, the solubility in the data set “Solubility” is over 100 mg/mL.

Take `O=C(NC(Cc1cc(=O)[nH]c2ccccc12)C(=O)O)c1ccc(Cl)cc1` (stereo not shown) [Rebamipide]: the EC50 in data set [2] (read-out: EC50 Cytokine Release GM-CSF), in data set [2] (read-out: EC50 Cytokine Release IFNγ), in data set [2] (read-out: EC50 Cytokine Release IL-1α), in data set [2] (read-out: EC50 Cytokine Release IL-1β), in data set [2] (read-out: EC50 Cytokine Release IL-2) and in data set [2] (read-out: EC50 Cytokine Release IL-3) was over 1 mM throughout. Moreover, the concentration for a half-maximal effect (EC50) in data set [2] (read-out: EC50 Cytokine Release IL-4), in data set [2] (read-out: EC50 Cytokine Release IL-5), in data set [2] (read-out: EC50 Cytokine Release IL-6), in data set [2] (read-out: EC50 Cytokine Release IL-10), in data set [2] (read-out: EC50 Cytokine Release IL-12p40) and in data set [2] (read-out: EC50 Cytokine Release IL-13) was over 1 mM in each case. Further, the EC50 in data set [2] (read-out: EC50 Cytokine Release IP-10), in data set [2] (read-out: EC50 Cytokine Release MCP-1), in data set [2] (read-out: EC50 Cytokine Release MIP-1α) and in data set [2] (read-out: EC50 Cytokine Release TNF-α) was over 1 mM each time.

“efalizumab: antibody directed against LFA-1”: in the data set with LFA-1, the “Mode of antagonism of LFA-1” value was “directly competitive antagonist of LFA-1”.

In general, EC50 refers to the midpoint of the concentration-response curve. One may read the solubility as how much of the substance goes into solution per volume.
